Laboratory results reported in US20040176371A1, “Novel pyrazolopyrimidinethione derivatives, preparation methods thereof and their use as therapeutics for erectile dysfunction” (priority 2001, published 2004).

Legend:
[1] = target: T1, phosphodiesterase V (PDE V) (Rattus norvegicus, UniProt O54735); test: Inhibitory activity against phosphodiesterase V (method of Thompson and Appleman); assay type: biochemical; details: enzyme isolated from diaphragm kidney cortex of rat
T1 construct: Phosphodiesterases I, III and V were isolated from diaphragm kidney cortex of rat; from tissue; host or cells: rat 'diaphragm kidney cortex'
Procedure: (§1) In order to identify the effects of compounds of formula 1 according to the present invention on erectile dysfunction, inhibitory activities against phosphodiesterase V and other isozymes (I, III and VI) were evaluated in accordance with the following procedure.
Phosphodiesterases I, III and V were isolated from diaphragm kidney cortex of rat, phosphodiesterase VI was isolated from retina of rat. […] A reaction mixture for enzyme activity [Total volume 100 μl: PDE enzymes (Column fraction 20˜40 μl), […] and 20 μl M calmodulin (10 μl addition for PDE I), [^3H]-cAMP, [^3H]-cGMP(1 μCi/μl), compound of formula 1 (0.01 nM˜1 μM), 50 mM Tris-HCl buffer solution (pH 7.4), 15 mM MgCl2, distilled water] was incubated in a water bath at 30° C. for 30 minutes, and then heat-denatured at 100° C. for 2 minutes to denature enzymes. After the reaction mixture was cooled down on ice, 250 μg/ml venom was added thereto. The resulting mixture was incubated at 30° C. for 10 minutes, and then 0.5 ml of cold d-H2O was added thereto to obtain a specimen. Guanine was separated from the specimen using an anion exchange resin (DEAE Sephacel A-25 anion exchange column). To measure the IC50 of specimen, radioactivity was counted by β-counter after treatment with 10 ml of scintillation cocktail solution.

[2] = target: phosphodiesterase I (PDE I); test: Inhibitory activity against phosphodiesterase I (method of Thompson and Appleman); assay type: biochemical; details: enzyme isolated from diaphragm kidney cortex of rat
Procedure: as §1
(§2) Phosphodiesterases I, III and V were isolated from diaphragm kidney cortex of rat, phosphodiesterase VI was isolated from retina of rat. Inhibitory activities against the isolated enzymes were evaluated by the method of Thompson and Appleman (Thompson and Appleman, Biochemistry, 1971, 10, 311-316). A reaction mixture for enzyme activity [Total volume 100 μl: PDE enzymes (Column fraction 20˜40 μl), […] and 20 μl M calmodulin (10 μl addition for PDE I), [^3H]-cAMP, [^3H]-cGMP(1 μCi/μl), compound of formula 1 (0.01 nM˜1 μM), 50 mM Tris-HCl buffer solution (pH 7.4), 15 mM MgCl2, distilled water] was incubated in a water bath at 30° C. for 30 minutes, and then heat-denatured at 100° C. for 2 minutes to denature enzymes. After the reaction mixture was cooled down on ice, 250 μg/ml venom was added thereto. The resulting mixture was incubated at 30° C. for 10 minutes, and then 0.5 ml of cold d-H2O was added thereto to obtain a specimen. Guanine was separated from the specimen using an anion exchange resin (DEAE Sephacel A-25 anion exchange column). To measure the IC50 of specimen, radioactivity was counted by β-counter after treatment with 10 ml of scintillation cocktail solution.

[3] = target: phosphodiesterase III (PDE III); test: Inhibitory activity against phosphodiesterase III (method of Thompson and Appleman); assay type: biochemical; details: enzyme isolated from diaphragm kidney cortex of rat
Procedure: as §1, §2

ICR mice = test: Acute toxicity when administered orally to mouse; assay type: in vivo; details: single oral administration, both male and female
Procedure: In order to evaluate the toxicity of the compounds of formula 1 according to the present invention, an experiment was performed as described below.
The compound prepared in the Example 5 was administered orally to four ICR mice (2 male, 2 female) once at a dose of 128, 320, 800, 2000 and 5000 mg/kg, respectively. 7 days after the administration, mortality rate, general symptoms, changes in weight, and autopsy results were recorded.

| SMILES | IC50 [1] | IC50 [2] | IC50 [3] | minimal lethal dose (ICR mice) |
| --- | --- | --- | --- | --- |
| CCCc1nn(C)c2c(=S)[nH]c(-c3cc(S(=O)(=O)N4CCNCC4)ccc3OCC)nc12 [Example 9, 5-[2-ethoxy-5-(piperazine-1-sulfonyl)phenyl]-1-methyl-3-propyl-1,6-dihydropyrazolo[4,3-d]pyrimidine-7-thione] | 0.00062 µM | 2.43 µM | 5.63 µM | – |
| CCCOc1ccc(S(=O)(=O)N2CCN(C)CC2)cc1-c1nc2c(CCC)nn(C)c2c(=S)[nH]1 [Example 10, 1-methyl-5-[5-(4-methylpiperazine-1-sulfonyl)-2-propoxyphenyl]-3-propyl-1,6-dihydropyrazolo[4,3-d]pyrimidine-7-thione] | 0.00058 µM | 0.62 µM | 1.03 µM | – |
| CCCOc1ccc(S(=O)(=O)N2CCN(CCO)CC2)cc1-c1nc2c(CCC)nn(C)c2c(=S)[nH]1 [Example 12, 5-{5-[4-(2-hydroxyethyl)piperazine-1-sulfonyl]-2-propoxyphenyl}-1-methyl-3-propyl-1,6-dihydropyrazolo[4,3-d]pyrimidine-7-thione] | 0.00046 µM | 0.01 µM | 1.08 µM | – |
| CCCc1nn(C)c2c(=S)[nH]c(-c3cc(S(=O)(=O)N4CCN(C)CC4)ccc3OCC)nc12 [Example 5, 5-[2-ethoxy-5-(4-methylpiperazine-1-sulfonyl)phenyl]-1-methyl-3-propyl-1,6-dihydropyrazolo[4,3-d]pyrimidine-7-thione] | 0.00059 µM | 1.89 µM | 1.25 µM | more than 5000 mg/kg |
| CCCc1nn(C)c2c(=O)[nH]c(-c3cc(S(=O)(=O)N4CCN(C)CC4)ccc3OCC)nc12 [Sildenafil, reference compound] | – | 2.25 µM | 1.75 µM | – |
| CCCc1nn(C)c2c(=S)[nH]c(-c3cc(S(=O)(=O)N4CCN(CCO)CC4)ccc3OCC)nc12 [Example 7, 5-{2-ethoxy-5-[4-(2-hydroxyethyl)piperazine-1-sulfonyl]phenyl}-1-methyl-3-propyl-1,6-dihydropyrazolo[4,3-d]pyrimidine-7-thione] | 0.0004 µM | 0.11 µM | 3.02 µM | – |
